Test results reported in patent publication US20080145313A1, “Compositions and Methods for the Treatment and Prevention of Neoplastic Disorders” (Genesis Research & Development Corporation Limited, priority 2006, published 2008).
Marks after values point to notes of the source that are not given here.

Legend:
YBX1 mRNA = YBX1 mRNA level by quantitative RT-PCR in A549 cells; type: cell-based, human; settings: 24 h post-transfection
Procedure: A549 cells were transfected with 10 nM RRM1-1 (SEQ ID NO: 4830 (DNA), and SEQ ID NO: 5136 (RNA); light grey bar in FIG. 12A), RRM1-2 (SEQ ID NO: 4831 (DNA), and SEQ ID NO: 5137 (RNA); dark grey bar in FIG. 12A), RRM1-3 (SEQ ID NO: 4832 (DNA), and SEQ ID NO: 5138 (RNA); black bar in FIG. 12A) or control siRNA (SEQ ID NO: 4804 (DNA), and SEQ ID NO: 5301 (RNA)) (open bar in FIG. 12A) and relative mRNA levels quantified 24 h post-transfection. RNA was purified from cells using Trizol® extraction as per the manufacturer's protocol (Invitrogen). cDNA was prepared by digesting approximately 200 ng purified RNA with DNAse I (Invitrogen) for 15 minutes at room temperature, followed by 15 minutes at 65° C. in the presence of 25 mM EDTA. 30 ng random primers were added and incubated for 10 minutes at room temperature, 1 minute on ice; Superscript III polymerase (Invitrogen) was added in presence of 5 nM DTT (Sigma, St Louis, Mo.) and 1 mM deoxyribonucleotides (Invitrogen), and the reaction incubated at 25° C. for 5 minutes, followed by an hour at 55° C. cDNA was diluted 1:3 in 10 mM Tris pH 7.0, and quantitative RT-PCR carried out on an ABI Prism 7900HT (Applied Biosciences, Inc., Foster City, Calif.) using FastStart TaqMan SYBRGreen (Roche, Basel, Switzerland) and specific primers at 360 nM for RRM1 and RRM2 and the housekeeping genes HPRT and Lamin. Primer sequence pairs used for RRM1, RRM2, HPRT and lamin are given in SEQ ID NO: 4881 and 4882; 4883 and 4884; 4885 and 4886; 4887 and 4888 respectively.
A549 cells were transfected with 0.1, 1.0 and 10 nM siRNA (given in SEQ ID NO: 4981 to 4985 (DNA), and SEQ ID NO: 5276-5280 (RNA)) and the relative mRNA levels quantified 24 h post-transfection as described in Example 8.

YBX1 (p47) and p37 = assay: YBX1 protein level by Western blotting in A549 cells; type: cell-based, human; settings: 10 nM siRNA; 24 h post-transfection; compared with control siRNA
Procedure: Cell lysates were prepared from A549 cells 24 h post-transfection with 10 nM YBX1-specific siRNA (SEQ ID NO: 4982 (DNA), and SEQ ID NO: 5277 (RNA) was labeled 94; SEQ ID NO: 4983 (DNA), and SEQ ID NO: 5278 (RNA) was labeled 95) or control siRNA (SEQ ID NO: 4804 (DNA), and SEQ ID NO: 5301 (RNA); labeled 81). Following Western blotting onto Immobilon-P PVDF filer (Millipore, Bedford Mass.), membranes were probed with a goat anti-human polyclonal antibody specific for YBX1 (AbCam plc, Cambridge, UK), at a concentration of […]. HRP-conjugated donkey anti-goat IgG ([…]; Santa Cruz) was used as a secondary antibody, and signal was detected with an ECL Plus Western blotting Detection System (GE Healthcare, UK) using a Typhoon Scanner (Molecular Dynamics, GE Healthcare, UK).

HCT-116 p53 null cells = assay: Growth inhibition of siRNA-transfected p53 null HCT-116 cells, SYBR Green I DNA content; type: cell-based; settings: for growth inhibition, HCT-116 −/−p53 cells: standardized against control siRNA
Procedure: A549 cells (human lung cancer cell line; ATCC No. CCL-185), SK-MeI-5 cells (human melanoma cell line; ATCC No. HTB-70), MCF-7 cells (human adenocarcinoma cell line; ATCC No. HTB-22), HCT-116 cells (colorectal carcinoma; ATCC CCL-247) and HCT-116 p53 null cells (derived from ATCC No. CCL-247; Bunz et al., Science 282:1497-1501, 1998) were cultured in RPMI 1640 medium with 10% v/v heat-inactivated fetal calf serum (FCS). Cells were seeded at a density of 5×10^4 cells/cm^2 in multi-well tissue culture plates. Sequences of Stealth™ siRNA duplexes (Invitrogen) targeting human ribonucleotide reductase subunit 1 (SEQ ID NO: 22) and subunit 2 (SEQ ID NO; 38) are given in SEQ ID NO: 4830-4832 (DNA), and SEQ ID NO: 5136-5138 (RNA) for RRM1, and SEQ ID NO: 5306-5308 (DNA), and SEQ ID NO: 5303-5305 (RNA) for RRM2. siRNAs were transfected at different concentrations into cells using Lipofectamine™ RNAiMAX transfection reagent (Invitrogen). Non-specific siRNA (SEQ ID NO: 4804 and 4805 (DNA), and SEQ ID NO: 5301 and 5302 (RNA)) were used as controls. The cellular DNA content was measured using a SYBR Green I-based fluorometric assay at 24, 48, 72 and 96 hours after transfection (120 hours for the MCF-7 cells), as follows. At the indicated time points following reverse transfection, cells were harvested and frozen at −80° C. overnight. Cells were thawed and cell lysis buffer (phosphate-buffered saline (PBS) containing 1% Triton X-100, pH 7) and SYBR Green I (1:10^5 V/V; Invitrogen) was added to the wells and incubated overnight in the dark at 4° C.
The following day, cell lysates were mixed thoroughly, and DNA fluorescence was measured with a Wallac Victor^2 plate reader (Turku, Finland) set at an excitation frequency of 485 nm and measuring emission at 535 nm.
To determine the effect of the p53-status of cells on RRM1 and RRM2 knockdown, growth inhibition of wild type (wt) HCT-116 and p53 null HCT-116 cells by RRM1 and RRM2-targeted siRNA were determined. Cells were reverse transfected with 1.0 and 10 nM RRM1-3 (SEQ ID NO: 4832 (DNA), and SEQ ID NO: 5138 (RNA)), 1.0 and 10 nM RRM2-2 (SEQ ID NO: 5307 (DNA), and SEQ ID NO: 5304 (RNA)) or 10 nM control siRNA (SEQ ID NO: 4804 (DNA), and SEQ ID NO: 5301 (RNA)), and growth measured daily for up to 4 days post transfection.
siRNA-mediated RNAi was also determined on a panel of different cell lines. A549, SK-MeI-5, wt HCT-116, HCT-116−/−p53 and MCF-7 cells were transfected with 10 nM siRNAs targeting YBX-1 and growth inhibition determined as described above. The YBX1 siRNAs are given in SEQ ID NO: 4981 to 4985 (DNA) and SEQ ID NO: 5276-5280 (RNA). A non-specific siRNA (SEQ ID NO: 4804 (DNA) and SEQ ID NO: 5301 (RNA)) was used as control. Growth inhibition by the siRNAs, given in Table 14, was standardized against the inhibition obtained with the control siRNA.

Substance	YBX1-specific reduction of mRNA levels in A549 cells (YBX1 mRNA; 10 nM siRNA)	YBX1 (p47) and p37 protein levels (YBX1 (p47) and p37)	YBX1-specific reduction of mRNA levels in A549 cells (YBX1 mRNA; 1 nM siRNA)	growth inhibition, HCT-116 −/−p53 cells (HCT-116 p53 null cells; 10 nM siRNA)	YBX1-specific reduction of mRNA levels in A549 cells (YBX1 mRNA; 0.1 nM siRNA)	growth inhibition, HCT-116 −/−p53 cells (HCT-116 p53 null cells; 1 nM siRNA)	growth inhibition, p53 null HCT-116 (HCT-116 p53 null cells; 1.0 and 10 nM siRNA, up to 4 days, compared with p53 wt)
SEQ ID NO: 4983: siRNA targeting YBX1 (chain 1 TACTGTGGTCGACGCCCATAGGGTC; chain 2 UACUGUGGUCGACGCCCAUAGGGUC; chemistry not given here; one strand in two spellings)	++ (At least 50% inhibition)	reduction in YBX1 (p47) and p37 protein levels					
SEQ ID NO: 4982: siRNA targeting YBX1 (chain 1 TTTGCTGGTAATTGCGTGGAGGACC; chain 2 UUUGCUGGUAAUUGCGUGGAGGACC; chemistry not given here; one strand in two spellings)	+++ (At least 70% inhibition)	reduction in YBX1 (p47) and p37 protein levels	+++ (At least 70% inhibition)	+++ (At least 70% inhibition)			
SEQ ID NO: 4985: siRNA targeting YBX1 (chain 1 CAGCCTAGAGAGGACGGCAATGAAG; chain 2 CAGCCUAGAGAGGACGGCAAUGAAG; chemistry not given here; one strand in two spellings)	++ (At least 50% inhibition)		++ (At least 50% inhibition)		+ (At least 20% inhibition)	−* (No inhibition)	
SEQ ID NO: 5307: Stealth siRNA targeting RRM2 (chain 1 AATTCATCCCAATGAGCTTCACAGG; chain 2 AAUUCAUCCCAAUGAGCUUCACAGG; Stealth siRNA, chemical pattern not given here; one strand in two spellings)							more growth inhibitory
SEQ ID NO: 4984: siRNA targeting YBX1 (chain 1 CAAGGTAGACCAGTGAGGCAGAATA; chain 2 CAAGGUAGACCAGUGAGGCAGAAUA; chemistry not given here; one strand in two spellings)	+++ (At least 70% inhibition)		+++ (At least 70% inhibition)		+++ (At least 70% inhibition)	+* (At least 20% inhibition)	
